PubChem BioAssay AID1259408 (Genetic Toxicology Data Bank (GENE-TOX), 2018)
The source made the active and inactive calls. No rule for the calls is given here.

System: GENE-TOX genotoxicity assays, various organisms and cells
Experiment: GENE-TOX mutagenicity studies
Details: for call: Assay Type: In vivo carcinogenicity studies
[1] = Species/Cell Type: Drosophila melanogaster, Assay Type: Sex-linked recessive lethal gene mutation, Assay Code: SRL+, Evaluation Type: Evaluation A (Pre-1980)
[2] = Species/Cell Type: Chinese hamster lung (V79) cells, Assay Type: Forward gene mutation at the HPRT or ouabain locus, Assay Code: V79+, Evaluation Type: Evaluation A (Pre-1980)
[3] = Species/Cell Type: Nonhuman, Assay Code: CCG+L, Evaluation Type: Evaluation A (Pre-1980)
[4] = Species/Cell Type: Chinese hamster ovary (CHO) cells, Assay Type: Forward gene mutation at the HPRT locus, Assay Code: CHOT, Evaluation Type: Evaluation B (Post-1980)
[5] = Species/Cell Type: Salmonella typhimurium (one or more of the five standard strains: TA98, TA100, TA1535, TA1537, and TA1538), Assay Type: Histidine reverse gene mutation, Ames assay, Assay Code: SAL+*, Activation: With metabolic activation, Evaluation Type: Evaluation A (Pre-1980)
[6] = Species/Cell Type: Nonhuman, Assay Type: Sister-chromatid exchange (SCE) in vitro, Assay Code: SC2+D, Dose Response: With dose response, Evaluation Type: Evaluation B (Post-1980)
[7] = Species/Cell Type: Salmonella typhimurium (one or more of the five standard strains: TA98, TA100, TA1535, TA1537, and TA1538), Assay Type: Histidine reverse gene mutation, Ames assay, Assay Code: SAL+, Evaluation Type: Evaluation A (Pre-1980)
[8] = Species/Cell Type: Salmonella typhimurium (one or more of the five standard strains: TA98, TA100, TA1535, TA1537, and TA1538), Assay Type: Histidine reverse gene mutation, Ames assay, Assay Code: SALT, Evaluation Type: Evaluation A (Pre-1980)
[9] = Species/Cell Type: Drosophila melanogaster, Assay Type: Sex-linked recessive lethal gene mutation, Assay Code: SRLT, Evaluation Type: Evaluation A (Pre-1980)

Cc1cc(Cl)ccc1OCC(=O)O
mutagenic call (Species/Cell Type: Drosophila melanogaster, Assay Type: Aneuploidy, sex chromosome gain, chromosome aberrations, Assay Code: DAG-M-F, Evaluation Type: Evaluation A (Pre-1980)): inactive; negative
mutagenic call (Species/Cell Type: Drosophila melanogaster, Assay Type: Aneuploidy, whole sex chromosome loss, chromosome aberrations, Assay Code: DAC-M-F, Evaluation Type: Evaluation A (Pre-1980)): inactive; negative
mutagenic call [1]: active; positive
mutagenic call (Species/Cell Type: Saccharomyces cerevisiae, Assay Type: Reverse gene mutation, Assay Code: YER+, Evaluation Type: Evaluation A (Pre-1980)): active; positive
mutagenic call (Species/Cell Type: Salmonella typhimurium, Serratia marcesens, Assay Type: Forward and reverse gene mutation, host-mediated assay, Assay Code: HM2-, Evaluation Type: Evaluation A (Pre-1980)): inactive; negative

Cc1c2ccccc2c(CO)c2c3c(ccc12)[C@@H](O)[C@H](O)C=C3
mutagenic call [2]: active; positive
call [3]: active; positive

C[C@@H]1C(=O)OCC2=CCN3CC[C@@H](OC(=O)[C@@H](C)[C@@]1(C)O)[C@@H]23
mutagenic call [1]: active; positive
mutagenic call (Species/Cell Type: Drosophila melanogaster, Sex: Male, Assay Type: Heritable translocation test, chromosome aberrations, Assay Code: DHT+, Evaluation Type: Evaluation A (Pre-1980)): active; positive

Cc1c2ccncc2c(C)c2c1[nH]c1ccc(O)cc12
mutagenic call [4]: no conclusion

Cc1cc(O)c2c(c1)C(=O)c1cc(O)cc(O[C@@H]3O[C@H](CO)[C@@H](O)[C@H](O)[C@H]3O)c1C2=O
mutagenic call [5]: active; positive

CCN(CCO)CCCNc1c2ccc(Cl)cc2nc2ccc(OC)cc12
mutagenic call (Species/Cell Type: Chinese hamster ovary (CHO) cells, Assay Type: Forward gene mutation at the HPRT locus, Assay Code: CHO-, Evaluation Type: Evaluation A (Pre-1980)): inactive; negative
mutagenic call [4]: no conclusion

Cc1c2ccccc2c(CO)c2c1ccc1ccccc12
mutagenic call [2]: active; positive
call [3]: active; positive

Cc1nc(-c2ccc([N+](=O)[O-])o2)cs1
mutagenic call [6]: active; positive
mutagenic call [7]: active; positive

CN(C)CCCN1c2ccccc2Sc2ccc(C(F)(F)F)cc21
mutagenic call (Species/Cell Type: Nonhuman bone marrow, Assay Type: Chromosome aberrations, in vivo, Assay Code: CY#-, Evaluation Type: Evaluation A (Pre-1980)): inactive; negative
mutagenic call (Species/Cell Type: Nonhuman, Assay Type: Chromosome aberrations in vitro, Assay Code: CY&+, Evaluation Type: Evaluation A (Pre-1980)): active; positive
mutagenic call (Species/Cell Type: Rodents, Sex: Male, Assay Type: Dominant lethal test, Assay Code: DLT+, Evaluation Type: Evaluation A (Pre-1980)): active; positive
mutagenic call (Species/Cell Type: Salmonella typhimurium, Assay Type: Forward and reverse gene mutation, host-mediated assay, Assay Code: HMA-, Evaluation Type: Evaluation A (Pre-1980)): inactive; negative

Cc1cccc(C2CO2)c1 (centres undefined)
mutagenic call (Species/Cell Type: Escherichia coli WP2 UVRA, Assay Type: Tryptophan reverse gene mutation, Assay Code: WPU+D, Dose Response: With dose response, Evaluation Type: Evaluation A (Pre-1980)): active; positive

CO[C@@H]1[C@H](O)C[C@@H](O[C@@H]2C[C@H](Oc3cc4cc5c(c(O)c4c(O)c3C)C(=O)[C@@H](O[C@H]3C[C@@H](O[C@H]4C[C@@H](O[C@H]6C[C@](C)(O)[C@@H](OC(C)=O)[C@H](C)O6)[C@H](O)[C@@H](C)O4)[C@H](O)[C@@H](C)O3)[C@H]([C@H](OC)C(=O)[C@@H](O)[C@@H](C)O)C5)O[C@H](C)[C@@H]2OC(C)=O)O[C@@H]1C
mutagenic call (Species/Cell Type: Chinese hamster ovary (CHO) cells, Assay Type: Forward gene mutation at the HPRT locus, Assay Code: CHO+, Evaluation Type: Evaluation B (Post-1980)): active; positive

CCCCCN(CCCC(=O)O)N=O
mutagenic call [8]: no conclusion

CN(CCCCCC(=O)OC[C@H](N)C(=O)O)N=O
mutagenic call (Species/Cell Type: Escherichia coli polA (W3110 vs P3478), Assay Type: Rec-assay, DNA effects (bacterial DNA repair), Assay Code: RE2T, Evaluation Type: Evaluation A (Pre-1980)): no conclusion
mutagenic call (Species/Cell Type: Escherichia coli polA (W3119 vs P3478), Assay Type: Rec-assay, DNA effects (bacterial DNA repair), Assay Code: RE1T, Evaluation Type: Evaluation A (Pre-1980)): no conclusion

O=NN1CCNC1=S
mutagenic call (Species/Cell Type: Mammalian polychromatic erythrocytes, Assay Type: Micronucleus test, chromosome aberrations, Assay Code: MNTT, Evaluation Type: Evaluation A (Pre-1980)): no conclusion
mutagenic call [6]: active; positive
mutagenic call (Species/Cell Type: Rodents, Sex: Male, Assay Type: Dominant lethal test, Assay Code: DLT-, Evaluation Type: Evaluation A (Pre-1980)): inactive; negative

NC12CC3CC(CC(C3)C1)C2
mutagenic call (Species/Cell Type: Fischer rat embryo (RLV/1706) cells, Assay Type: Cell transformation, viral enhanced, Assay Code: CTR-, Evaluation Type: Evaluation A (Pre-1980)): inactive; negative

Cc1c2ccccc2c(C(=O)O)c2ccc3ccccc3c12
mutagenic call [9]: no conclusion

ClC1CO1 (centres undefined)
mutagenic call [2]: active; positive
call [3]: active; positive
mutagenic call (Species/Cell Type: Saccharomyces cerevisiae, Assay Type: Mitotic recombination or gene conversion, Assay Code: YEC+, Evaluation Type: Evaluation A (Pre-1980)): active; positive
mutagenic call [7]: active; positive
mutagenic call (Species/Cell Type: Schizosaccharomyces pombe, Assay Type: Reverse gene mutation, Assay Code: YEZ+, Evaluation Type: Evaluation A (Pre-1980)): active; positive

O=C1CN(CO)C(=O)CN1CO
mutagenic call (Species/Cell Type: Arabidopsis species, Assay Type: Gene mutation, Assay Code: ARM-, Evaluation Type: Evaluation A (Pre-1980)): inactive; negative

CCCCCN(CCCC)N=O
mutagenic call [5]: active; positive

Nc1nc(/C=C/c2ccc([N+](=O)[O-])o2)cs1
mutagenic call [7]: active; positive

Cc1cc2ccccc2cn1
mutagenic call [8]: no conclusion

Cc1ccc2nc3ccccc3cc2c1
mutagenic call (Species/Cell Type: Saccharomyces cerevisiae, Assay Type: Forward gene mutation, Assay Code: YEFT, Evaluation Type: Evaluation A (Pre-1980)): no conclusion

CC(COc1ccccc1)N(CCCl)Cc1ccccc1 (centres undefined)
call (Species/Cell Type: Nonhuman, Assay Code: CCG+, Evaluation Type: Evaluation A (Pre-1980)): active; positive

CCCCc1nc(Cl)c(CO)n1Cc1ccc(-c2ccccc2-c2nnn[nH]2)cc1
mutagenic call [9]: no conclusion
mutagenic call (Species/Cell Type: Drosophila melanogaster, Sex: Male, Assay Type: Heritable translocation test, chromosome aberrations, Assay Code: DHTT, Evaluation Type: Evaluation A (Pre-1980)): no conclusion
